Test results as given in patent publication US7910755B2, “Stem cell expansion and uses” (priority 2004, dated 2011).

Assays:
[1] = tested on: lethally-irradiated female B6D2F1 mice; assay: Survival of lethally-irradiated mice (10 Gy total body irradiation, 137Cs); format: in vivo; settings: groups of 12
Experimental: Exposure of rodents to ionizing radiation exposure. The effect of selected F1Cs on survival of lethally-irradiated female B6D2F1 mice were compared to control animals treated with vehicle alone. The animals were exposed to 10 Gy of total body irradiation at 2.5 Gy/min using a ^137Cs source. […] For Group 4, test article was administered as a 50 μL volume, by intramuscular injection for three consecutive days. The formulation was a suspension containing 0.1% w/v carboxymethyl-cellulose, 0.9% w/v sodium chloride and 0.05% v/v phenol. The formulations were agitated to uniformly resuspend the F1C before syringing, and injected into animals within a few minutes of drawing into the syringe to prevent settling in the syringe.
The groups of animals were treated as follows.

[2] = tested on: female BALB/cByJ mice, DTH response to topical oxazolone challenge; assay: Modulation of delayed type hypersensitivity (oxazolone ear challenge); format: in vivo; settings: difference right minus left ear, 24 hours following oxazolone challenge; vehicle alone 0.225 mm
Experimental: Modulation of delayed type hypersensitivity. The capacity of F1Cs to modulate delayed type hypersensitivity (DTH) is determined in mice. Groups of five female BALB/cByJ mice (20-25 grams) are anesthetized and 100 μL of a 3% solution of oxazolone is applied on day 0 to the shaved abdomen and dried. Seven days later, on day 7, the mice are challenged by applying 5 μL of oxazolone topically to each side of the right ear. The F1C (at about 20-100 mg/mL) in vehicle is administered by subcutaneous injection (2 mg/day) one time on day 6, 24 hours before the oxazolone challenge. The vehicle as a non-aqueous suspension of the F1C in, e.g., 2% benzyl alcohol w/v, 0.1% Brij 96 w/v and equal volumes of PEG 300 and propylene glycol.
Dexamethasone in saline (0.2 mg/mL) is administered daily for 9 days (day −1 to 7), first dose 24 hours before sensitization, last dose at challenge by subcutaneous injection (0.01 mg/dose, 50 μl/injection). On Day 8, 24 hours following the oxazolone challenge, both the right and left ear thicknesses are measured using a micrometer caliper and the differences are determined. The differential ear thickness is measured as an indicator of the DTH response to topical oxazolone challenge. The DTH response is expressed as the difference in the thickness (mm) between the right and the left ears for each animal.

[3] = tested on: Macaca mulatta (Rhesus monkey) exposed to 6 Gy γ-radiation
Source text: Treatment of whole body lethal radiation and characterization of mortality surrogate markers. Two groups of 10 Macaca mulatta (Rhesus monkey) were exposed to a 6 Gy dose of γ-radiation from a ^60Co source. This dose is an LD50/30 dose for this species. […] The age range was 1.75-5.0 years at the onset of treatment.
Test article was an aqueous suspension in vehicle. The vehicle article consists of a solution of sodium chloride (0.9% w/v), carboxymethylcellulose (0.5% w/v), polysorbate 80 (2% v/v), benzalkonium chloride (0.02% v/v) and sodium phosphate (10 mM, pH 6.5). Immediately prior to drawing into a syringe, the test article formulation was briefly vortexed to uniformly distribute sedimented test article. Once drawn into a syringe, the test article was administered within 10 minutes. Just prior to injection, the syringe containing the test article was rotated end-over-end to uniformly disperse the compound.
Whole body radiation. The animals were exposed to ionizing as follows. Dosimetry measurements using phantoms, the dose rate and duration of irradiation and the actual time of irradiation for each individual animal was recorded. Animals were fasted overnight prior to whole-body irradiation and fed upon return to the housing facility. Animals were transferred to the treatment facility in a transport vehicle with controlled environment. During transportation, each animal was individually housed in a stainless steel squeeze back cage. Temperature in the transport vehicle was automatically recorded every 5 minutes during transportation. Clinical signs were monitored immediately before and after transportation.
The animals received a midline treatment dose of 600 cGy. The dose rate of the ^60Co gamma source was about 60 cGy per minute and the actual rate was recorded for each animal. To obtain a homogenous dose distribution, the radiation treatment was divided in two parts. First, the animal received half of the dose by anteroposterior irradiation. The second half of the dose was delivered by posteroanterior irradiation. Once the treatment was completed, animals were returned to the transport vehicle and transported to the housing facility. The radiation dose was calibrated using an acrylic phantom placed in the same experimental set up that was used for animal irradiation.
The animals received the vehicle control once daily for five consecutive days by intramuscular injections. The first injection on day 1 was administered at 2-3 hours after irradiation. The dose volume was 0.15 mL/kg for all animals. The dose volume was evenly divided between two distinct sites (approximately 0.075 mL/kg per site). The actual volume delivered was calculated and adjusted based on each animal's body weight.
During the pre-treatment period cage side observations of clinical signs were performed once daily. A detailed clinical examination was performed on all animals once prior to irradiation on day 1, day 9, weekly thereafter and at day 40 and 41. After radiation, the animals and clinical signs were observed twice a day during the protocol or as often as deemed necessary. Moribund animals were euthanized for humane reasons.

[4] = day 6, 0.6 mg s.c. daily for 3 days
[5] = day 7, 0.6 mg s.c. daily for 3 days
[6] = day 12, 0.6 mg s.c. daily for 3 days
[7] = day 21, 0.6 mg s.c. daily for 3 days

In the case of `C[C@]12CC[C@H]3[C@@H](CC=C4C[C@@H](O)CC[C@@]43C)[C@@H]1CC[C@@H]2N` [3β-hydroxy-17,7-aminoandrost-5-ene], the “number of surviving animals” value [1, 4] is reported as 12, the “number of surviving animals” value [1, 5] is reported as 12 and the “number of surviving animals” value [1, 6] is reported as 12. For the same compound, the “number of surviving animals” value [1, 7] was 11.
With `C[C@@H]1C[C@H]2[C@@H]3CCC4=CC(=O)C=C[C@]4(C)[C@@]3(F)[C@@H](O)C[C@]2(C)[C@@]1(O)C(=O)CO` [dexamethasone] the “differential ear thickness (DTH response)” value [2] was 0.144 mm.
In the case of `C[C@]12CC[C@H]3[C@@H](CC=C4C[C@@H](O)CC[C@@]43C)[C@@H]1CC[C@@H]2O` [3β,17β-dihydroxyandrost-5-ene], the “number of surviving animals” value ([1]; day 6, 0.6 mg i.m. daily for 3 days) is reported as 12, the “number of surviving animals” value [1, 4] is reported as 12 and the “number of surviving animals” value ([1]; day 6, 3.0 mg s.c. daily for 3 days) is reported as 12. For the same compound, the “number of surviving animals” value ([1]; day 7, 0.6 mg i.m. daily for 3 days) was 12, the “number of surviving animals” value [1, 5] was 11 and the “number of surviving animals” value ([1]; day 7, 3.0 mg s.c. daily for 3 days) was 12. For the same compound, the “number of surviving animals” value ([1]; day 12, 0.6 mg i.m. daily for 3 days) was 11, the “number of surviving animals” value [1, 6] was 10 and the “number of surviving animals” value ([1]; day 12, 3.0 mg s.c. daily for 3 days) was 9. For the same compound, the “number of surviving animals” value ([1]; day 21, 0.6 mg i.m. daily for 3 days) was 9, the “number of surviving animals” value [1, 7] was 7 and the “number of surviving animals” value ([1]; day 21, 3.0 mg s.c. daily for 3 days) was 7. For the same compound, the “number of animals having febrile severe neutropenia (>40.4° C. and absolute neutrophil count less than 500 cells/μL)” value ([3]; 15 mg/kg i.m. for 5 days, group of 10, at some time during the protocol) was 2, the “days of severe thrombocytopenia (less than 20,000 platelets/μL) experienced collectively” value ([3]; 15 mg/kg i.m. for 5 days, group of 10, vehicle 51 days, p=0.009) was 32 days and the “median days of febrile severe neutropenia” value ([3]; 15 mg/kg i.m. for 5 days, vehicle median 5 days, p=0.037) was 0 days. The animals survived ([3]; 15 mg/kg i.m. once per day for 5 days, 40 days) was 9 of 10 and the Mortality ([3]; 15 mg/kg i.m. once per day for 5 days, control group 40%) was 10%.
In the case of `O=P1(N(CCCl)CCCl)NCCCO1` (centres unmarked) [cyclophosphamide], the “differential ear thickness (DTH response)” value [2] is reported as 0.092 mm.
